Tests used:
[1] = test system: laser-induced CNV in Brown-Norway rats; assay: Laser-induced CNV, lesion size in choroidal flatmounts; assay type: in vivo, rat; conditions: 0.3 mg/kg BW daily i.p., mean±SEM
Procedure: (§1) Brown-Norway rats were anesthetized with 0.2-0.3 ml of a 50:50 mixture of 100 mg/ml Ketamine and 20 mg/ml Xylazine. Pupils were dilated with 5.0% Phenylephrine and 0.8% Tropicamide. CNV was induced with a 532 nm laser (Oculight GLx, Iridex, Mountain View, Calif.). Six laser spots (150 mW, 100 μm, 100 msec) were placed in each eye using a slit-lamp delivery system and a cover glass as a contact lens. Production of a bubble at the time of laser confirmed the rupture of the Bruch's membrane.
(§2) To block VAP-1, a specific VAP-1 inhibitor, Compound II described above, was used (R-tech Ueno, Ltd., Tokyo, Japan). After laser injury, the inhibitor (0.3 mg/kg BW) was administered to the animals by daily i.p. injections. As a control, some animals received the same regimen for the vehicle solution alone.
One week or two weeks after laser injury and treatment with VAP-1 inhibitor or vehicle, the size of CNV lesions was quantified using choroidal flat mounts. Briefly, rats were anesthetized and perfused through the left ventricle with 20 ml PBS followed by 20 ml of 5 mg/ml fluorescein labeled dextran (FITC-dextran; MW=2×106, SIGMA) in 1% gelatin. The eyes were enucleated and fixed in 4% paraformaldehyde for 3 hours. The anterior segment and retina were removed from the eyecup. […] The average size of the CNV lesions was then determined and used for the evaluation.

[2] = test system: laser-induced CNV in Brown-Norway rats; assay: Macrophage (ED-1 positive cell) infiltration in CNV lesions; assay type: in vivo, rat; conditions: 3 days after laser injury; vs vehicle; n=4, p<0.05
Procedure: as §1, §2
At 1, 3, and 7 days after laser injury and treatment with either VAP-1 inhibitor or vehicle solution, animals were perfused with 200 ml of PBS/kg BW under deep anesthesia. […] The photographs of CNV lesions were taken, and the numbers of ED-1-positive cells were counted. To obtain a quantitative index of macrophage numbers in CNV lesions, an optical density plot of the selected area was generated by a histogram graphing tool in the Photoshop image analysis software (version 6.0; Adobe Systems, Mountain View, Calif.), as described in the literature (for example, Sakurai et al. (2003) IOVS 44: 3578-85). […]

[3] = test system: IL-1β-induced corneal angiogenesis in BALB/c mice; assay: Leukocyte infiltration in IL-1β-implanted cornea (immunostaining); assay type: in vivo, mouse; conditions: 0.3 mg/kg daily i.p.
Procedure: (§3) BALB/c mice were anesthetized by intrapcritoneal (i.p.) injection of pentobarbital sodium (60 mg/kg). Hydron pellets (0.3 μl) containing 30 ng mouse IL-1β (401-ML; R&D Systems) were prepared and implanted into the corneas. Pellets were positioned 1 mm from the corneal limbus. Implanted eyes were treated with Bacitracin ophthalmic ointment (E. Fougera & Co.) to prevent infection.
(§4) To block VAP-1, mice received daily i.p. injections of a specific VAP-1 inhibitor, Compound II (R-tech Ueno Ltd., Tokyo, Japan) as described above. A daily dose of 0.3 mg/kg was administered at day 0 and continued until the sixth day after implantation. Two, four and six days after implantation, digital images of the corneal vessels were obtained and recorded using OpenLab software version 2.2.5 (Improvision Inc.) with standardized illumination and contrast and were saved onto disks. The quantitative analysis of new vessel growth in the mouse corneas was performed using Scion Image software (version 4.0.2; Scion Corp.).
Mice were sacrificed under deep anesthesia with pentobarbital sodium (60 mg/kg i.p.). The eyes were harvested, snap-frozen in optimal cutting temperature (OCT) compound (Sakura Finetechnical) and 10 μm sections were prepared, air-dried and fixed in cold acetone for 10 min. The sections were blocked with nonfat dried-milk (M7409; Sigma) for 10 minutes and stained with anti-CD11b mAb (1:100, 550282; BD Pharmingen), anti-Gr-1 mAb (1:100, 550282; BD Pharmingen) or anti-F4/80 mAb (1:100, MCA497G; Scrotec). After an overnight incubation, sections were washed and stained for 20 min. with secondary Abs, FITC-conjugated goat anti-rat (1:100, AP136F; Chemicon International).

[4] = test system: IL-1β-induced corneal lymphangiogenesis in BALB/c mice; assay: IL-1β-induced corneal lymphangiogenesis (LYVE-1 stain); assay type: in vivo, mouse; conditions: IL-1β pellet; i.p. administration; vs vehicle
Procedure: as §3, §4
Eyes were enucleated and fixed with 4% paraformaldehyde for one hour at 4° C. For whole-mount preparation, the corneas were exposed by removing other portions of the eye (i.e. iris, sclera, retina, and conjunctiva). After washing with PBS, tissues were placed in methanol for 20 minutes. […]

CC(=O)Nc1nc(CCc2ccc(NC(=N)NN)cc2)c(Cc2ccc(S(C)(=O)=O)cc2)s1 [Compound II]
CNV size ([1]; 7 days after laser injury, n=7): 14,536±2175 μm^2 | CNV size ([1]; fourteen days after laser injury, n=10 eyes, not significant vs vehicle (p=0.5)): 23,992±1437 μm^2 | reduction of number of accumulated macrophages (ED-1 positive cells) in CNV lesions [2]: 41% | infiltration of CD11b(+) cells in cornea ([3]; 3 days after pellet implantation): effectively inhibited | number of F4/80(+) cells in cornea ([3]; IL-1β-implanted cornea): less than in vehicle-treated cornea or untreated cornea | number of Gr-1(+) cells in cornea ([3]; IL-1β-implanted cornea): less than in vehicle-treated cornea or untreated cornea | growth of lymphatic vessels in cornea [4]: reduced growth of lymphatic vessels

Source: patent publication US20190076406A1, “METHODS AND COMPOSITIONS FOR TREATING CONDITIONS ASSOCIATED WITH ANGIOGENESIS USING A VASCULAR ADHESION PROTEIN-1 (VAP-1) INHIBITOR” (MASSACHUSETTS EYE & EAR INFIRMARY, priority 2007, published 2019)
